Molecular target: T1, histamine H3 receptor (Homo sapiens, UniProt Q9Y5N1)
T1 construct: expressed in transfected cells; host or cells: CHO K1 cells carrying the pSwitch regulatory plasmid, transfected with pGeneH3 and induced with mifepristone; clone 3H3; membrane preparation
Assay: Histamine H3 functional antagonist assay ([35S]-GTPγS SPA, membranes from cultured H3 cells)
Type: biochemical
Details: hydrochloride salts tested; averages of a number of experiments; membrane prepared from cultured H3 cells; read-out: functional pKi (fpKi), histamine H3 functional antagonist assay (converted)
From the text: A membrane preparation containing histamine H3 receptors may be prepared in accordance with the following procedures:
DNA encoding the human histamine H3 gene (Huvar, A. et al. (1999) Mol. Pharmacol. 55(6), 1101-1107) was cloned into a holding vector, pcDNA3.1 TOPO (InVitrogen) and its cDNA was isolated from this vector by restriction digestion of plasmid DNA with the enzymes BamH1 and Not-1 and ligated into the inducible expression vector pGene (InVitrogen) digested with the same enzymes. The GeneSwitch™ system (a system where in transgene expression is switched off in the absence of an inducer and switched on in the presence of an inducer) was performed as described in U.S. Pat. Nos. 5,364,791; 5,874,534; and 5,935,934. Ligated DNA was transformed into competent DH5α E. coli host bacterial cells and plated onto Luria Broth (LB) agar containing Zeocin™ (an antibiotic which allows the selection of cells expressing the sh ble gene which is present on pGene and pSwitch) at 50 μg ml^−1. Colonies containing the re-ligated plasmid were identified by restriction analysis. DNA for transfection into mammalian cells was prepared from 250 ml cultures of the host bacterium containing the pGeneH3 plasmid and isolated using a DNA preparation kit (Qiagen Midi-Prep) as per manufacturers guidelines (Qiagen).
CHO K1 cells previously transfected with the pSwitch regulatory plasmid (InVitrogen) were seeded at 2×10e6 cells per T75 flask in Complete Medium, containing Hams F12 (GIBCOBRL, Life Technologies) medium supplemented with 10% v/v dialysed foetal bovine serum, L-glutamine, and hygromycin (100 μg ml^−1), 24 hours prior to use. Plasmid DNA was transfected into the cells using Lipofectamine plus according to the manufacturers guidelines (InVitrogen). 48 hours post transfection cells were placed into complete medium supplemented with 500 μg ml^−1 Zeocin™.
10-14 days post selection 10 nM Mifepristone (InVitrogen), was added to the culture medium to induce the expression of the receptor. 18 hours post induction cells were detached from the flask using ethylenediamine tetra-acetic acid (EDTA; 1:5000; InVitrogen), following several washes with phosphate buffered saline pH 7.4 and resuspended in Sorting Medium containing Minimum Essential Medium (MEM), without phenol red, and supplemented with Earles salts and 3% Foetal Clone II (Hyclone). Approximately 1×10e7 cells were examined for receptor expression by staining with a rabbit polyclonal antibody, 4a, raised against the N-terminal domain of the histamine H3 receptor, incubated on ice for 60 minutes, followed by two washes in sorting medium. Receptor bound antibody was detected by incubation of the cells for 60 minutes on ice with a goat anti rabbit antibody, conjugated with Alexa 488 fluorescence marker (Molecular Probes). Following two further washes with Sorting Medium, cells were filtered through a 50 μm Filcon™ (BD Biosciences) and then analysed on a FACS Vantage SE Flow Cytometer fitted with an Automatic Cell Deposition Unit. Control cells were non-induced cells treated in a similar manner. Positively stained cells were sorted as single cells into 96-well plates, containing Complete Medium containing 500 μg ml^−1 Zeocin™ and allowed to expand before reanalysis for receptor expression via antibody and ligand binding studies. One clone, 3H3, was selected for membrane preparation.
All steps of the protocol are carried out at 4° C. and with pre-cooled reagents. […]

T1 sequence (Q9Y5N1 whole entry): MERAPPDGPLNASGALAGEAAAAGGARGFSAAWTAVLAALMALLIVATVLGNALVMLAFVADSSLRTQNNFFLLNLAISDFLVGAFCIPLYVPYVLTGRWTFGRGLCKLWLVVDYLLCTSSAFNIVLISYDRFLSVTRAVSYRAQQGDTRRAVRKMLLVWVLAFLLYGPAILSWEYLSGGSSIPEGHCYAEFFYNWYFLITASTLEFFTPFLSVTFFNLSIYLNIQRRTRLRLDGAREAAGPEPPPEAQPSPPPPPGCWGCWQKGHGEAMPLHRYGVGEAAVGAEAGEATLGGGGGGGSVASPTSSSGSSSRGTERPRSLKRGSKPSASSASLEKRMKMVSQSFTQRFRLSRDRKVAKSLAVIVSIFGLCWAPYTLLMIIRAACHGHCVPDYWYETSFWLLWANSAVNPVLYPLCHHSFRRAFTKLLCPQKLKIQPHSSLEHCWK

CNC(=O)c1ccc(Oc2ccc3c(c2)CC(N2CCCC2)C3)nc1 (single isomer, unassigned; (-)) [Example 22, (−)-Enantiomer N-methyl-6-{[2-(1-pyrrolidinyl)-2,3-dihydro-1H-inden-5-yl]oxy}-3-pyridinecarboxamide] gave a Ki of under 1 nM.
In the case of C[C@H]1CCCN1C1Cc2ccc(Oc3ccc(N4CCCC4=O)cn3)cc2C1 (stereo partly drawn) [Example 20, 1-[6-({2-[(2S)-2-Methyl-1-pyrrolidinyl]-2,3-dihydro-1H-inden-5-yl}oxy)-3-pyridinyl]-2-pyrrolidinone], the Ki is reported as under 1 nM.
For O=C(c1ccc(Oc2ccc3c(c2)CC(N2CCCC2)C3)nc1)N1CCCC1 (centres unmarked) [Example 12, 5-(1-Pyrrolidinylcarbonyl)-2-{[2-(1-pyrrolidinyl)-2,3-dihydro-1H-inden-5-yl]oxy}pyridine], the Ki was under 1 nM.
O=C1CCCN1c1ccc(Oc2ccc3c(c2)CC(N2CCCC2)C3)nc1 (racemic) [Example 3, 1-(6-{[2-(1-Pyrrolidinyl)-2,3-dihydro-1H-inden-5-yl]oxy}-3-pyridinyl)-2-pyrrolidinone] was tested, and the Ki was under 1 nM.
With O=C1CCCN1c1ccc(Oc2ccc3c(c2)CC(N2CCCC2)C3)nc1 (single isomer, unassigned; enantiomer 1) [Example 4, (−)-Enantiomer 1-(6-{[2-(1-Pyrrolidinyl)-2,3-dihydro-1H-inden-5-yl]oxy}-3-pyridinyl)-2-pyrrolidinone] the Ki was under 1 nM.

Source: patent publication US20090306052A1, “INDENYL DERIVATIVES AND USE THEREOF FOR THE TREATMENT OF NEUROLOGICAL DISORDERS” (Glaxo Group Limited, priority 2004, published 2009)
